Where two headings read alike, the source gives them in different places. Marks after values point to notes of the source that are not given here.
How the values were obtained:
[1] = tested on: Plasmodium berghei (KBG-173 strain); assay: Plasmodium berghei assay in vivo (modified Thompson Test) in CD-1 mice; details: for Average Days Survival: 31 day experiment
Protocol: In vivo antimalarial activity was tested in male or female Charles River CD-1 mice that were 4-5 weeks old and weighed 20-25 g They were housed in groups of 3 or 4 in standard plastic cages with wire tops, Bed-o-Cob® bedding, 12 hr/day of light, and maintained at 75° F. They were fed a standard Ralston Purina mouse chow and the cages and bottles were changed twice a week. Test compounds were ground in a mortar and pestle and diluted with enough vehicle to give a volume of 10 mL/kg of mouse weight. The oral doses were prepared in 0.5% hydroxyethylcellulose (Union Carbide Corp. WP 4400)/0.1% Tween-80 (Fisher Scientific T164-500). The amount of drug was calculated on the free base weight. The mice were infected intraperitoneally on day 0 with 5×10^4 erythrocytes parasitized with Plasmodium berghei (KBG-173 strain) from a donor mouse having a parasitemia between 5-10%. On days 3, 4 and 5 the test compounds were administered bid, spaced 6 hr apart, by oral gavage to the mice. Activity was measured by survival, with full activity defined as all animals living at day 31. Partial activity is defined as days of increased survival versus the infected non-treated controls. This in vivo model is a modification of the Thompson Test. For further description see Ager, A. L, Jr. Rodent Malaria Models. In Handbook of Experimental Pharmacology: Antimalarial Drugs. 1. 68/1; Peters, W., Richards, W. H. G., Eds.: Springer-Verlag: Berlin, 1984, pp. 231-33.

P. falciparum strain D6 = assay: [3H]-hypoxanthine growth inhibition assay, P. falciparum D6; type: cell-based; details: Plasmodium falciparum
Summary of the method: (§1)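 Parasites cultured in human O Rh+ RBCs in RPMI-1640-LPLF (low PABA and folic acid) with 10% human plasma, pH 6.9, 37° C, 5% O2/5% CO2/90% N2. Sorbitol-synchronised ring-stage cultures started at 1% parasitaemia; growth measured as [3H]-hypoxanthine incorporation in hypoxanthine-free medium. Compound stocks 1 mM in DMSO.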

P. falciparum strain W2 = assay: [3H]-hypoxanthine growth inhibition assay, P. falciparum W2; type: cell-based; details: Plasmodium falciparum
Summary of the method: as §1

[2] = 4 mg/kg/day oral, bid on days 3, 4 and 5
[3] = 8 mg/kg/day oral, bid on days 3, 4 and 5
[4] = 16 mg/kg/day oral, bid on days 3, 4 and 5
[5] = 32 mg/kg/day oral, bid on days 3, 4 and 5
[6] = 64 mg/kg/day oral, bid on days 3, 4 and 5
[7] = Plasmodium berghei, 744 h, 4 mg/kg/day oral, bid on days 3, 4 and 5, CD-1 mice infected with P. berghei, read-out: Number of mice alive at day 31 (converted)
[8] = Plasmodium berghei, 744 h, 8 mg/kg/day oral, bid on days 3, 4 and 5, CD-1 mice infected with P. berghei, read-out: Number of mice alive at day 31 (converted)
[9] = Plasmodium berghei, 744 h, 16 mg/kg/day oral, bid on days 3, 4 and 5, CD-1 mice infected with P. berghei, read-out: Number of mice alive at day 31 (converted)
[10] = Plasmodium berghei, 744 h, 32 mg/kg/day oral, bid on days 3, 4 and 5, CD-1 mice infected with P. berghei, read-out: Number of mice alive at day 31 (converted)
[11] = Plasmodium berghei, 744 h, 64 mg/kg/day oral, bid on days 3, 4 and 5, CD-1 mice infected with P. berghei, read-out: Number of mice alive at day 31 (converted)
[12] = P. falciparum D6 (sensitive to chloroquine and pyrimethamine), [3H]-hypoxanthine incorporation, read-out: D6 IC50
[13] = P. falciparum W2 (resistant to chloroquine and pyrimethamine), [3H]-hypoxanthine incorporation, read-out: W2 IC50
[14] = Plasmodium berghei, po, 744 h, read-out: Number of mice alive at day 31

Row | SMILES | Average Days Survival [1, 2] | Average Days Survival [1, 3] | Average Days Survival [1, 4] | Average Days Survival [1, 5] | Average Days Survival [1, 6] | responders at 4 mg/kg [1, 7] [%] | responders at 8 mg/kg [1, 8] [%] | responders at 16 mg/kg [1, 9] [%] | responders at 32 mg/kg [1, 10] [%] | responders at 64 mg/kg [1, 11] [%] | IC50 (P. falciparum strain D6; [12]) [nM] | IC50 (P. falciparum strain W2; [13]) [nM] | Average Days Survival ([1]; 128 mg/kg/day oral, bid on days 3, 4 and 5) [days] | responders at 4 mg/kg [1, 14] [%] | responders at 16 mg/kg [1, 14] [%] | responders at 64 mg/kg [1, 14] [%] | responders at 128 mg/kg [1, 14] [%] | IC50 (P. falciparum strain D6; D6, read-out: D6 IC50) [nM] | IC50 (P. falciparum strain W2; W2, read-out: W2 IC50) [nM]
1 | CC(C)(C)c1cc(CN(CC2CCCCC2)C(C)(C)C)c(O)c(-c2ccc(C(F)(F)F)nc2)c1.Cl [Example 58, 4-(tert-Butyl)-2-((tert-butyl(cyclohexylmethyl)amino)methyl)-6-(6-(trifluoromethyl)pyridin-3-yl)phenol hydrochloride] | >17.5 days | >20 days | >23.8 days | >26 days | >31* days | 14.3 | 42.9 | 42.9 | 85.7 | 100 | 1020 | 541 |  |  |  |  |  |  | 
2 | CCN(CC)CCCC(C)Nc1ccnc2cc(Cl)ccc12 (stereo not shown) [Chloroquine, chloroquine, reference compound] | 10.3 days |  | >18.8 days |  | >18.6 days |  |  |  |  |  |  |  | >21.3 | 0 | 14.3 | 28.6 | 57.1 | 12 | 133
3 | CC(C)(C)NCc1cc(-c2ccc(Cl)cc2)cc(-c2ccc(C(F)(F)F)nc2)c1O.Cl [Example 70, 3-((tert-Butylamino)methyl)-4′-chloro-5-(6-(trifluoromethyl)pyridin-3-yl)-[1,1′-biphenyl]-4-ol hydrochloride] | >19.5 days | >21.5 days | >19 days | >31* days | >31* days | 42.9 | 71.4 | 57.1 | 100 | 100 | 90 | 48 |  |  |  |  |  |  | 
4 | CC(C)(C)NCc1cc(C(C)(C)C)cc(-c2cnc(Cl)c(Cl)c2)c1O.Cl [Example 41, 4-(tert-Butyl)-2-((tert-butylamino)methyl)-6-(5,6-dichloropyridin-3-yl)phenol hydrochloride] | >31* days | >31* days | >31* days | >31* days | >31* days | 100 | 100 | 100 | 100 | 100 | 10 | 3 |  |  |  |  |  |  | 
5 | CC(C)(C)c1cc2c(c(-c3ccc(C(F)(F)F)nc3)c1)OCN(C(C)(C)C)C2 [Example 75, 3,6-di-tert-Butyl-8-(6-(trifluoromethyl)pyridin-3-yl)-3,4-dihydro-2H-benzo[e][1,3]oxazine] | >22 days | >25 days | >31* days | >31* days | >31* days | 57.1 | 57.1 | 100 | 100 | 100 | 20 | 12 |  |  |  |  |  |  | 
6 | CC(C)(C)NCc1cc(C(C)(C)C)cc(-c2cnc(C(F)(F)F)c(Cl)c2)c1O.Cl [Example 44, 4-(tert-Butyl)-2-((tert-butylamino)methyl)-6-(5-chloro-6-(trifluoromethyl)pyridin-3-yl)phenol hydrochloride] | >31* days | >31* days | >31* days | >31* days | >31* days | 100 | 100 | 100 | 100 | 100 | 11 | 6 |  |  |  |  |  |  | 
